Values quoted from earlier work as cited in patent publication US20050288375A1, “Method and composition for treating neurodegenerative disorders” (Myriad Genetics, Incorporated, priority 2003, published 2005).

Tests used:
[1] = rofecoxib at 25 mg daily; naproxen in the same trial
[2] = not given; remark: listed apart in the source
[3] = tested on: brain cells after cerebral ischemia; conditions: rats

Structure (SMILES)	efficacy for treating AD [1]	side effects at high doses	also measured
COc1ccc2cc([C@H](C)C(=O)O)ccc2c1 [Naproxen]	failed to show efficacy		
COc1ccc2c(c1)[C@@]13CCCC[C@H]1[C@@H](C2)N(C)CC3 [dextromethorphan, (+)-3-methoxy-N-methylmorphinan]		drowsiness, nausea, and decreased coordination	
CN1CC[C@]23CCCC[C@H]2[C@H]1Cc1ccc(O)cc13 [dextrorphan, (+)-3-hydroxy-N-methylmorphinan]		drowsiness, nausea, and decreased coordination	
CC12CC3CC(C)(C1)CC(N)(C3)C2 [memantine, 1-amino-3,5-dimethyl adamantane]			efficacy in treating mild-to-moderate AD [2]: showed efficacy
CS(=O)(=O)c1ccc(C2=C(c3ccccc3)C(=O)OC2)cc1 [rofecoxib]	failed to show efficacy		
c1ccc(C2(N3CCCCC3)CCCCC2)cc1 [PCP, Phencyclidine]			destruction of brain cells after cerebral ischemia [3]: prevent the destruction of brain cells
